Toxic doses and inconclusive results are not listed. Square brackets hold non-standard residues; d marks the D form. Peptide text beside a SMILES is read from it. * marks the point of attachment. ξ: configuration not given here. Tos = Cc1ccc(S(=O)(=O)*)cc1; ξS = NC(CO)C(=O)O
Test system: L1210 leukemia ip in BDF1 mice, survival T/C
Assay: NCI In Vivo Anticancer Drug Screen. Data for tumor model L1210 Leukemia (intraperitoneal) in B6D2F1 (BDF1) mice
Conditions: endpoint: mean survival time, higher = longer survival
Summary of the method: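 Tumor cells were implanted, animals were treated, and survival was followed. The result divides the treated measurement by the vehicle-control measurement.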

[1] = dose: 100.0 mg/kg/injection, schedule: Q04DX003 (ip), vehicle: saline with Tween-80
[2] = dose: 200.0 mg/kg/injection, schedule: Q04DX003 (ip), vehicle: saline with Tween-80
[3] = dose: 400.0 mg/kg/injection, schedule: Q04DX003 (ip), vehicle: saline with Tween-80
[4] = dose: 100.0 mg/kg/injection, schedule: Q01DX009 (ip), vehicle: saline
[5] = dose: 200.0 mg/kg/injection, schedule: Q01DX009 (ip), vehicle: saline

Which T/C [1] does the source give for `CN(C)c1ccc(C(=O)c2ccc(N(C)C)cc2)cc1` here?
The T/C was 93 % of control.

And the T/C [2]?
Its T/C is 88 % of control.

And the T/C [3]?
The T/C was 97 % of control.

How did the T/C (dose: 100.0 mg/kg/injection, schedule: Q01DX001 (ip), vehicle: acetone) turn out when `[Tl][CH]1C=CC=C1` was run?
Its T/C is 93 % of control.

What does the source list for `COc1cc(OC)c(OC)cc1/C=C/c1ccc2ccccc2n1`?
T/C (dose: 100.0 mg/kg/injection, schedule: Q01DX009 (ip), vehicle: saline with Tween-80): 91 % of control; T/C (dose: 200.0 mg/kg/injection, schedule: Q01DX009 (ip), vehicle: saline with Tween-80): 100 % of control; T/C (dose: 400.0 mg/kg/injection, schedule: Q01DX009 (ip), vehicle: saline with Tween-80): 98 % of control

How did the T/C (dose: 100.0 mg/kg/injection, schedule: Q04DX003 (ip), vehicle: saline) turn out when `COC(=O)C12COC(=O)C1COC2=O` (stereo not drawn) was run?
The T/C was 100 % of control.

And the T/C (dose: 200.0 mg/kg/injection, schedule: Q04DX003 (ip), vehicle: saline)?
Its T/C is 98 % of control.

And the T/C (dose: 400.0 mg/kg/injection, schedule: Q04DX003 (ip), vehicle: saline)?
The T/C was 109 % of control.

With `OC(C=C(C(F)(F)F)C(F)(F)F)c1cccc(Cl)c1` (stereo not drawn) as the compound, how does the T/C (dose: 100.0 mg/kg/injection, schedule: Q04DX003 (sc), vehicle: olive oil, sesame oil, peanut oil) read?
Its T/C is 97 % of control.

And the T/C (dose: 200.0 mg/kg/injection, schedule: Q04DX003 (sc), vehicle: olive oil, sesame oil, peanut oil)?
Its T/C is 95 % of control.

What about the T/C (dose: 400.0 mg/kg/injection, schedule: Q04DX003 (sc), vehicle: olive oil, sesame oil, peanut oil) of the same compound?
The T/C was 91 % of control.

For `Cc1ccc(S(=O)(=O)NC(CO)C(=O)NCC(=O)O)cc1` (stereo not drawn) (Tos-[ξS]-Gly-OH), which T/C [4] is on record?
The T/C was 103 % of control.

And the T/C [5]?
Its T/C is 97 % of control.

And the T/C (dose: 400.0 mg/kg/injection, schedule: Q01DX009 (ip), vehicle: saline)?
The T/C was 91 % of control.

How did the T/C [1] turn out when `COC1OC(CN=[N+]=[N-])C(N=[N+]=[N-])C(OS(C)(=O)=O)C1OS(C)(=O)=O` (stereo not drawn) was run?
Its T/C is 92 % of control.

And the T/C [2]?
Its T/C is 90 % of control.

What about the T/C [3] of the same compound?
Its T/C is 94 % of control.

With `CN(C(N)=O)c1c(O)nc(N)[nH]c1=O` as the compound, how does the T/C (dose: 25.0 mg/kg/injection, schedule: Q01DX009 (ip), vehicle: water) read?
The T/C was 98 % of control.

And the T/C (dose: 50.0 mg/kg/injection, schedule: Q01DX009 (ip), vehicle: water)?
The T/C was 98 % of control.

What about the T/C (dose: 50.0 mg/kg/injection, schedule: Q04DX003 (ip), vehicle: water) of the same compound?
Its T/C is 108 % of control.

And the T/C (dose: 100.0 mg/kg/injection, schedule: Q01DX009 (ip), vehicle: water)?
Its T/C is 102 % of control.

What about the T/C (dose: 100.0 mg/kg/injection, schedule: Q04DX003 (ip), vehicle: water) of the same compound?
Its T/C is 97 % of control.

What about the T/C (dose: 150.0 mg/kg/injection, schedule: Q01DX009 (ip), vehicle: water) of the same compound?
Its T/C is 105 % of control.

What about the T/C (dose: 200.0 mg/kg/injection, schedule: Q04DX003 (ip), vehicle: water) of the same compound?
The T/C was 90 % of control.

With `CCC/C(=N\Nc1ccc([N+](=O)[O-])cc1[N+](=O)[O-])c1ccccc1` as the compound, how does the T/C [1] read?
Its T/C is 91 % of control.

What about the T/C [3] of the same compound?
Its T/C is 86 % of control.

`O=C(O)Cn1nnc2ccccc21` was tested. Which T/C (dose: 50.0 mg/kg/injection, schedule: Q01DX009 (ip), vehicle: saline) did it give?
Its T/C is 94 % of control.

And the T/C [4]?
The T/C was 249 % of control.

What about the T/C [5] of the same compound?
Its T/C is 94 % of control.

`O=NC12CCCCC1C(O)c1cc(Cl)cc(Cl)c1O2` (stereo not drawn) was tested. Which T/C (dose: 100.0 mg/kg/injection, schedule: Q01DX009 (ip), vehicle: other) did it give?
The T/C was 119 % of control.

And the T/C (dose: 100.0 mg/kg/injection, schedule: Q04DX003 (ip), vehicle: Klucel (hydroxypropylcellulose) (HPC))?
The T/C was 101 % of control.

What about the T/C (dose: 200.0 mg/kg/injection, schedule: Q01DX009 (ip), vehicle: other) of the same compound?
Its T/C is 95 % of control.

What about the T/C (dose: 200.0 mg/kg/injection, schedule: Q04DX003 (ip), vehicle: Klucel (hydroxypropylcellulose) (HPC)) of the same compound?
The T/C was 95 % of control.

What about the T/C (dose: 400.0 mg/kg/injection, schedule: Q01DX009 (ip), vehicle: other) of the same compound?
Its T/C is 89 % of control.

What about the T/C (dose: 400.0 mg/kg/injection, schedule: Q04DX003 (ip), vehicle: Klucel (hydroxypropylcellulose) (HPC)) of the same compound?
The T/C was 102 % of control.

What does the source list for `O=C(O)c1cscc1Cc1cccs1`?
T/C (dose: 100.0 mg/kg/injection, schedule: Q01DX001 (ip), vehicle: saline with Tween-80): 96 % of control; T/C (dose: 200.0 mg/kg/injection, schedule: Q01DX001 (ip), vehicle: saline with Tween-80): 96 % of control; T/C (dose: 400.0 mg/kg/injection, schedule: Q01DX001 (ip), vehicle: saline with Tween-80): 103 % of control

`COC1(NC(=O)CCCC(N)C(=O)O)C(=O)N2C(C(=O)O)=C(COC(N)=O)CSC21` (stereo not drawn) was tested. Which T/C (dose: 100.0 mg/kg/injection, schedule: Q04DX002 (ip), vehicle: saline) did it give?
The T/C was 103 % of control.

And the T/C (dose: 200.0 mg/kg/injection, schedule: Q04DX002 (ip), vehicle: saline)?
Its T/C is 122 % of control.

What about the T/C (dose: 400.0 mg/kg/injection, schedule: Q04DX002 (ip), vehicle: saline) of the same compound?
Its T/C is 107 % of control.

What does the source list for `Cc1cccc2c(N3CCOCC3)c3c(nc12)CCCCC3`?
T/C [1]: 96 % of control; T/C [2]: 95 % of control; T/C [3]: 101 % of control

What does the source list for `Cc1ccc([N+](=O)[O-])cc1NC(=O)Sc1ccccc1O`?
T/C [2]: 92 % of control; T/C [3]: 90 % of control
